Experimental data: patent publication US20240398783A1, “Compounds and Pharmaceutical Compositions Comprising Inhibitors of Amyloid Peptide Interactions with Glycosaminoglycans, Methods of Treatment and Use Thereof” (Gismo Therapeutics, Inc., priority 2021, published 2024)
Structures can show the parent of a compound that is named as a salt. Where two headings read alike, the source gives them in different places.

Legend:
[1] = target: Alpha-Synuclein Protofibril binding to heparin (HS-GAG) (Homo sapiens, UniProt P37840); assay: Inhibition of alpha-synuclein protofibril binding to immobilized heparin-BSA (ELISA); set-up: species or system porcine; conditions: for inhibition at 30 µM: read-out: Alpha-Synuclein/Heparin Activity (% inhibition class)
Method: (§1) Porcine intestinal mucosa heparin conjugated to Bovine Serum Albumin (Heparin-BSA) was prepared as described (Najjam, S. et al. 1997, Cytokine 12, 1013-1022). Heparin is a sulfated HS-GAG and is commonly used as a HS-GAG in biochemical and binding assays (Lindahl, U. and Kjellen, L. (2013) ibid). Heparin-BSA at 0.01 mg/ml in Phosphate Buffered Saline (PBS; pH 7.4) was added to a 96 well polystyrene ELISA plate (NUNC Cat. No. 449824; 100 μl per well) and incubated Over Night (ON) at 4 degrees Celsius. For negative controls, ELISA plates were coated with BSA instead of Heparin-BSA, using the same procedure. Following the incubation, the plate was washed consecutively, by immersion, with de-ionized water and PBS (pH 7.4). The ELISA plate was then blocked with nonfat milk (2%, 200 μl per well) for 2 hours at Room Temperature (RT) with gentle shaking. Following blocking, the plate was washed with de-ionized water then PBS (pH 7.4). GBAPs were dissolved and diluted in PBS (pH 6.5, supplemented with 0.1% BSA) at desired concentrations, added to the ELISA plates containing immobilized Heparin-BSA (100 μl per well) and incubated for 2 hours at RT with gentle shaking. Following incubation, the plate was washed with de-ionized water and three times with PBS (pH 6.5) plus Tween. Bound GBAP was detected by a monoclonal antibody specific for that GBAP, followed by incubation with secondary antibody conjugated to horseradish peroxidase (HRP). Antibody was diluted in PBS (pH 6.5 supplemented with 1% BSA). Following each incubation with antibody, the plate was washed with de-ionized water and three times with PBS (pH 6.5) wash buffer containing 0.1% Tween. The peroxidase substrate chromogen, TMB (Dako Cat. No. S1599) was added (100 μl per well) to the ELISA plate and incubated at room temperature. After 5 minutes ELISA Stop Solution (hydrochloric acid 1N, sulfuric acid 3N) was added (100 μl per well) to stop the peroxidase catalyzed colorimetric reaction. The Optical Density of the samples was measured at 450 nm using an ELISA plate reader (BioTek Synergy H1). Following color development, the % inhibition compared to control (BSA-coated plates) was determined. IC-50s were calculated using GraphPad Prism software.
The assay was performed as described in Example 43, with the following modifications. Following to coating the plates with Heparin-BSA, plates were washed as described. The compounds were dissolved in DMSO at 10 mM final concentration and further diluted prior to assay. DMSO concentration in the screening well was up to […]. Individual compounds were co-incubated with alpha-synuclein on plates containing immobilized heparin. Alpha-synuclein purchased from rPeptide (Cat. No. S1001) was used to prepare protofibrils as described in Ihse et al., 2017. Alpha-synuclein was dissolved in PBS (pH7.4) to a concentration of 140 μM (˜2 mg/ml), and incubated for 7 days at 37° C. with rotary agitation (400 rpm). Resulting fibrils were sonicated for 10 minutes in ultrasonic water bath, quickly frozen and kept in aliquots at −80 degrees Celsius. Protofibrillar alpha-synuclein diluted in PBS (pH 6.5, supplemented with BSA, 0.1%) was added to the ELISA plate (100 μl per well) and incubated for 2 hours at RT with gentle shaking. Following the incubation, the plate was washed with de-ionized water and three times with PBS (pH 6.5) plus Tween. Bound Alpha-synuclein was detected by Anti-Alpha-synuclein Monoclonal Antibody 211 (Santa Cruz Cat. No. sc-12767), followed by secondary anti-IgG antibody conjugated to HRP (R&D System, Cat. No. HAF007). Following to color development with TMB, as described in Example 43, the Optical Density of the samples was measured at 450 nm using an ELISA plate reader. Following color development, the % inhibition compared to control (no compound, DMSO control) for every compound was determined.
An example of inhibition curve is shown in FIG. 1 for Inhibitor Compounds 22 and 24. […]

[2] = target: T1, SAA binding to heparin (HS-GAG) (Homo sapiens, UniProt P0DJI8); assay: Inhibition of SAA binding to immobilized heparin-BSA (ELISA); set-up: species or system porcine
T1 sequence (P0DJI8 19-122): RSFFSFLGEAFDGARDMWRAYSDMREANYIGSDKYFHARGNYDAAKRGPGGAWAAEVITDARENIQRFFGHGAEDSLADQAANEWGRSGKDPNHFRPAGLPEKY
Method: as §1
The assay was performed as described in Example 43, with the following modifications. Following to coating the plates with Heparin-BSA, plates were washed as described. The compounds were dissolved in DMSO at 10 mM final concentration and further diluted prior to assay. DMSO concentration in the screening well was up to 2%. Individual compounds were co-incubated with SAA on plates containing immobilized heparin. Serum amyloid A (SAA) from PeProtech (NJ, USA, Cat. No. 300-53) was dissolved in DMSO, quickly frozen and kept in aliquots at −80 degrees Celsius. SAA dissolved in Tris buffer (pH 6.5, supplemented with BSA, 0.1%) was added to the ELISA plate (100 μl per well) and incubated for 2 hours at RT with gentle shaking. Following the incubation, the plate was washed with de-ionized water and three times with Tris Buffered Saline (TBS, pH 6.5) plus Tween. Bound SAA was detected by Anti-SAA Monoclonal Antibody (R&D System Cat. No. MAB30192), followed by secondary anti-IgG antibody conjugated to HRP (R&D System, Cat. No. HAF007). Antibody was diluted in TBS antibody buffer (pH6.5 supplemented with 1% BSA). Following each incubation with antibody, the plate was washed with de-ionized water and three times with TBS (pH6.5) wash buffer containing 0.1% Tween. Following to color development with TMB, as described in Example 43, the Optical Density of the samples was measured at 450 nm using an ELISA plate reader. Following color development, the % inhibition compared to control (no compound, DMSO control) for every compound was determined.
As described in Example 43, Heparin in the form of Heparin-BSA conjugate is used as a source of HS-GAG. For each compound IC-50 value in SAA—heparin-BSA binding assay is shown in μM (micromolar). […]

[3] = read-out: Serum Amyloid A/Heparin Activity (% inhibition class)
[4] = Alpha-Synuclein/Heparin Activity (IC-50), alpha-synuclein protofibrils, heparin-BSA
[5] = alpha-synuclein protofibrils, heparin-BSA, read-out: Alpha-Synuclein/Heparin Activity (IC-50)
[6] = SAA, heparin-BSA; read-out: Serum Amyloid A/Heparin Activity (IC-50)
[7] = read-out: Serum Amyloid A/Heparin Activity (IC-50); SAA, heparin-BSA
[8] = 30 μM compound, alpha-synuclein protofibrils, heparin-BSA

Row | Structure (SMILES) | inhibition at 30 µM [1] | inhibition at 30 µM [2, 3] | IC50 [1, 4] | IC50 [2, 7] | other results
1 | COc1cc(Nc2cncc3cc(Cl)ccc23)cnc1-n1cnc(C)c1C [Compound 33, 7-chloro-N-(6-(4,5-dimethyl-1H-imidazol-1-yl)-5-methoxypyridin-3-yl)isoquinolin-4-amine phosphoric acid salt] | < 30% | < 30% | – | – | –
2 | C(=N\Nc1ccc2c3c(cccc13)CC2)/c1ccc(-n2ccnc2)cc1 [Compound 8, (E)-1-(4-((2-(1,2-dihydroacenaphthylen-5-yl)hydrazineylidene)methyl)phenyl)-1H-imidazole] | < 30% | < 30% | – | – | –
3 | Clc1ccc2c(N/N=C/c3ccc(-n4cccn4)cc3)ccnc2c1 [Compound 3, (E)-4-((E)-(4-(1H-pyrazol-1-yl)benzylidene)hydrazono)-7-chloro-1,4-dihydroquinoline] | – | > 30% | 1.7 µM | – | –
4 | Cc1cc(-n2ccnc2)ccc1/C=N/Nc1ccnc2cc(Cl)ccc12 [Compound 1, (E)-4-((E)-(4-(1H-imidazol-1-yl)-2-methylbenzylidene)hydrazono)-7-chloro-1,4-dihydroquinoline] | – | – | – | – | IC50 [1, 5]: 3.19 µM; IC50 [2, 6]: 8.16 µM
5 | Cc1ncn(-c2ncc(Nc3ncnc4cc(Cl)ccc34)cc2O)c1C [Compound 40, 5-((7-chloroquinazolin-4-yl)amino)-2-(4,5-dimethyl-1H-imidazol-1-yl)pyridin-3-ol phosphoric acid salt] | < 30% | > 30% | – | – | –
6 | Clc1ccc2c(Nc3ccc(-n4cncn4)nc3)ccnc2c1 [Compound 44, N-(6-(1H-1,2,4-triazol-1-yl)pyridin-3-yl)-7-chloroquinolin-4-amine] | – | – | 19.2 µM | 17.4 µM | –
7 | COc1cc(Nc2nncc3cc(Cl)ccc23)cnc1-n1cnc(C)c1C [Compound 31, 6-chloro-N-(6-(4,5-dimethyl-1H-imidazol-1-yl)-5-methoxypyridin-3-yl)phthalazin-1-amine phosphoric acid salt] | < 30% | > 30% | – | – | –
8 | C/C(=N\Nc1ncnc2cc(F)ccc12)c1ccc(-n2cnc(C)c2C)nc1 [Compound 21, (E)-4-(2-(1-(6-(4,5-dimethyl-1H-imidazol-1-yl)pyridin-3-yl)ethylidene)hydrazineyl)-7-fluoroquinazoline] | – | – | – | – | IC50 [1, 5]: 2.06 µM; IC50 [2, 6]: 85.2 µM
9 | Clc1ccc2c(Nc3ccc(-n4ccnc4)nc3)ncnc2c1 [Compound 41, N-(6-(1H-imidazol-1-yl)pyridin-3-yl)-7-chloroquinazolin-4-amine] | – | – | – | – | IC50 [1, 5]: 12.8 µM; IC50 [2, 6]: 12.2 µM
10 | Clc1ccc2c(N/N=C/c3ccc(-n4ccnc4)cc3)ccnc2c1 [Compound 38, 4-(2-(4-(1H-imidazol-1-yl)benzylidene)hydrazineyl)-7-chloroquinoline dihydrochloride] | – | – | 1.88 µM | 14.9 µM | –
11 | Fc1ccc2c(N/N=C/c3ccc(CN4CCOCC4)cc3)ccnc2c1 [Compound 6, (E)-4-(4-((2-(7-fluoroquinolin-4-yl)hydrazono)methyl)benzyl)morpholine] | – | – | – | – | inhibition at 30 µM [1, 8]: > 30%; inhibition at 30 µM ([2]; 30 μM compound; SAA, heparin-BSA; read-out: Serum Amyloid A/Heparin Activity (% inhibition class)): > 30%
12 | CN(C)Cc1cc(Nc2ccnc3cc(Cl)ccc23)ccn1 [Compound 45, 7-chloro-N-(2-((dimethylamino)methyl)pyridin-4-yl)quinolin-4-amine] | – | – | – | 63.5 µM | inhibition at 30 µM [1, 8]: < 30%
13 | CC(=NNc1ccnc2cc(Cl)ccc12)c1ccc(-n2cnc(C)c2C)nc1 [Compound 22, 7-chloro-4-(2-(1-(6-(4,5-dimethyl-1H-imidazol-1-yl)pyridin-3-yl)ethylidene)hydrazineyl)quinoline] | – | – | 2.87 µM | 83.2 µM | –
14 | Cc1ncn(-c2ccc(Nc3ncnc4cc(Cl)ccc34)cn2)c1C [Compound 25, 7-chloro-N-(6-(4,5-dimethyl-1H-imidazol-1-yl)pyridin-3-yl)quinazolin-4-amine] | – | – | 3.83 µM | 40.9 µM | –
15 | Clc1ccc2c(N/N=C/c3ccc(-n4ccnc4)nc3)ccnc2c1 [Compound 14, (E)-4-(2-((6-(1H-imidazol-1-yl)pyridin-3-yl)methylene)hydrazineyl)-7-chloroquinoline hydrochloride] | – | – | 2.02 µM | 7.67 µM | –
16 | Fc1cc(/C=N/Nc2ccnc3cc(Cl)ccc23)ccc1-n1ccnc1 [Compound 35, (E)-7-chloro-4-(2-(3-fluoro-4-(1H-imidazol-1-yl)benzylidene)hydrazineyl)quinoline hydrochloride] | < 30% | – | – | 31.8 µM | –
17 | C[n+]1ccn(-c2ccc(Nc3ncnc4cc(Cl)ccc34)cn2)c1 [Compound 43, 1-(5-((7-chloroquinazolin-4-yl)amino)pyridin-2-yl)-3-methyl-1H-imidazol-3-ium iodide phosphoric acid salt] | < 30% | – | – | 31.5 µM | –
18 | C/C(=N\Nc1ncnc2cc(Cl)ccc12)c1cccc(CN(C)C)c1 [Compound 29, 1-(3-(1-(2-(7-chloroquinazolin-4-yl)hydrazineylidene)ethyl)phenyl)—N,N-dimethylmethanamine] | > 30% | < 30% | – | – | –
19 | Cc1ncn(-c2ccc(/C=N/Nc3ccnc4cc(Cl)ccc34)cc2)c1C [Compound 2, (E)-7-chloro-4-((E)-(4-(4,5-dimethyl-1H-imidazol-1-yl)benzylidene)hydrazono)-1,4-dihydroquinoline] | < 30% | – | – | 16 µM | –
20 | Clc1ccc2c(Nc3ccc(-n4cncn4)nc3)ncnc2c1 [Compound 34, N-(6-(1H-1,2,4-triazol-1-yl)pyridin-3-yl)-7-chloroquinazolin-4-amine phosphoric acid salt] | – | – | 5.06 µM | 12.4 µM | –
